Source: ChEMBL document CHEMBL3885861, “Open TG-GATES”

Species: Rattus norvegicus
Experiment: Open TG-GATES - Regimen: Single
Format: toxicity, organism-based, Sprague-Dawley
Design: regimen Single, gender Male, age 6 weeks
Settings: in vivo, po, 50 mg/kg, route gavage, dose level High; for APTT / Bas / Eos / Fbg / Hb / Ht / Lym / MCH / MCHC / MCV / Mono / Neu / PT / Plat / RBC / Ret / WBC: tissue Blood; for LIVER: tissue Liver; for A/G / ALP / ALT / AST / BUN / CRE / Ca / Cl / DBIL / GLC / IP / K / LDH / Na / PL / RALB / TBIL / TC / TG / TP / gamma-GTP: tissue Plasma

Compound `C=C(C)[C@H]1Cc2c(ccc3c2O[C@@H]2COc4cc(OC)c(OC)cc4[C@@H]2C3=O)O1` [ROTENONE] has a TERMINAL_BW (3 h) of 195.9 g, an APTT (3 h) of 15.9 s and a Bas (3 h) of 0%. It also gave an Eos (3 h) of 0.8%, a Fbg (3 h) of 204.8 mg/dL and a Hb (3 h) of 13.2 g/dL. It also gave a Ht (3 h) of 40.1%, a Lym (3 h) of 73.4% and an MCH (3 h) of 20.7 pg. It also gave an MCHC (3 h) of 32.8%, an MCV (3 h) of 63.1 fL and a Mono (3 h) of 9.2%. For the same compound, the Neu (3 h) was 17.4%, the PT (3 h) was 12.6 s and the Plat (3 h) was 124.2 x10_4/uL. For the same compound, the RBC (3 h) was 636.2 x10_4/ul, the Ret (3 h) was 8.8% and the WBC (3 h) was 89.8 x10_2/uL. The LIVER (3 h) was 8.5 g, the A/G (3 h) was 2.3 and the ALP (3 h) was 1894.6 IU/L. For the same compound, the ALT (3 h) was 39 IU/L, the AST (3 h) was 79.4 IU/L and the BUN (3 h) was 13.8 mg/dL. For the same compound, the CRE (3 h) was 0.4 mg/dL, the Ca (3 h) was 11.1 mg/dL and the Cl (3 h) was 103.6 meq/L. For the same compound, the DBIL (3 h) was 0.008 mg/dL, the GLC (3 h) was 182.2 mg/dL and the IP (3 h) was 8.9 mg/dL. The K (3 h) was 3.9 meq/L, the LDH (3 h) was 92.6 IU/L and the Na (3 h) was 140.6 meq/L. For the same compound, the PL (3 h) was 123.2 mg/dL, the RALB (3 h) was 3.7 g/dL and the TBIL (3 h) was 0.036 mg/dL. For the same compound, the TC (3 h) was 77.4 mg/dL, the TG (3 h) was 49.4 mg/dL and the TP (3 h) was 5.3 g/dL. It also gave a gamma-GTP (3 h) of 1 IU/L, a TERMINAL_BW (6 h) of 197.3 g and an APTT (6 h) of 16.8 s. It also gave a Bas (6 h) of 0%, an Eos (6 h) of 0% and a Fbg (6 h) of 213.4 mg/dL. The Hb (6 h) was 13.3 g/dL, the Ht (6 h) was 40.7% and the Lym (6 h) was 77.8%. It also gave an MCH (6 h) of 20.8 pg, an MCHC (6 h) of 32.7% and an MCV (6 h) of 63.7 fL. The Mono (6 h) was 6.6%, the Neu (6 h) was 15% and the PT (6 h) was 12.6 s. It also gave a Plat (6 h) of 136.6 x10_4/uL, an RBC (6 h) of 638.2 x10_4/ul and a Ret (6 h) of 9.1%. The WBC (6 h) was 84.6 x10_2/uL, the LIVER (6 h) was 8.2 g and the A/G (6 h) was 2.3. The ALP (6 h) was 1068.4 IU/L, the ALT (6 h) was 41.2 IU/L and the AST (6 h) was 75 IU/L. For the same compound, the BUN (6 h) was 11.4 mg/dL, the CRE (6 h) was 0.4 mg/dL and the Ca (6 h) was 11.3 mg/dL. For the same compound, the Cl (6 h) was 103.8 meq/L, the DBIL (6 h) was 0.01 mg/dL and the GLC (6 h) was 185.8 mg/dL. It also gave an IP (6 h) of 9.9 mg/dL, a K (6 h) of 3.9 meq/L and an LDH (6 h) of 96 IU/L. For the same compound, the Na (6 h) was 140.6 meq/L, the PL (6 h) was 145.2 mg/dL and the RALB (6 h) was 3.7 g/dL. The TBIL (6 h) was 0.044 mg/dL, the TC (6 h) was 84.8 mg/dL and the TG (6 h) was 45.6 mg/dL. It also gave a TP (6 h) of 5.4 g/dL, a gamma-GTP (6 h) of 0.2 IU/L and a TERMINAL_BW (9 h) of 196.2 g. The APTT (9 h) was 16.7 s, the Bas (9 h) was 0% and the Eos (9 h) was 0.6%. The Fbg (9 h) was 221.4 mg/dL, the Hb (9 h) was 13 g/dL and the Ht (9 h) was 39.5%. For the same compound, the Lym (9 h) was 82.2%, the MCH (9 h) was 21.4 pg and the MCHC (9 h) was 33%. It also gave an MCV (9 h) of 64.8 fL, a Mono (9 h) of 4.6% and a Neu (9 h) of 12.6%. For the same compound, the PT (9 h) was 12.6 s, the Plat (9 h) was 137 x10_4/uL and the RBC (9 h) was 610 x10_4/ul. For the same compound, the Ret (9 h) was 8.7%, the WBC (9 h) was 86.6 x10_2/uL and the LIVER (9 h) was 8 g. For the same compound, the A/G (9 h) was 2.3, the ALP (9 h) was 1128.2 IU/L and the ALT (9 h) was 30.6 IU/L. The AST (9 h) was 66.8 IU/L, the BUN (9 h) was 11.8 mg/dL and the CRE (9 h) was 0.4 mg/dL. It also gave a Ca (9 h) of 11 mg/dL, a Cl (9 h) of 104.2 meq/L and a DBIL (9 h) of 0.01 mg/dL. The GLC (9 h) was 171.2 mg/dL, the IP (9 h) was 10.2 mg/dL and the K (9 h) was 4.1 meq/L. For the same compound, the LDH (9 h) was 105 IU/L, the Na (9 h) was 139.6 meq/L and the PL (9 h) was 135.8 mg/dL. For the same compound, the RALB (9 h) was 3.8 g/dL, the TBIL (9 h) was 0.048 mg/dL and the TC (9 h) was 87.6 mg/dL. It also gave a TG (9 h) of 34.8 mg/dL, a TP (9 h) of 5.4 g/dL and a gamma-GTP (9 h) of 1 IU/L. For the same compound, the TERMINAL_BW (24 h) was 202.8 g, the APTT (24 h) was 16.4 s and the Bas (24 h) was 0%. For the same compound, the Eos (24 h) was 0.8%, the Fbg (24 h) was 198.6 mg/dL and the Hb (24 h) was 13.3 g/dL. It also gave a Ht (24 h) of 40.7%, a Lym (24 h) of 83.8% and an MCH (24 h) of 20.6 pg. The MCHC (24 h) was 32.7%, the MCV (24 h) was 63 fL and the Mono (24 h) was 4.6%. The Neu (24 h) was 10.8%, the PT (24 h) was 12.4 s and the Plat (24 h) was 128.6 x10_4/uL. For the same compound, the RBC (24 h) was 648.4 x10_4/ul, the Ret (24 h) was 7.3% and the WBC (24 h) was 67.6 x10_2/uL. For the same compound, the LIVER (24 h) was 8.4 g, the A/G (24 h) was 2.5 and the ALP (24 h) was 1301.4 IU/L. The ALT (24 h) was 25.8 IU/L, the AST (24 h) was 61.4 IU/L and the BUN (24 h) was 13.6 mg/dL. The CRE (24 h) was 0.4 mg/dL, the Ca (24 h) was 11.8 mg/dL and the Cl (24 h) was 104 meq/L. The DBIL (24 h) was 0.01 mg/dL, the GLC (24 h) was 185.8 mg/dL and the IP (24 h) was 8.3 mg/dL. For the same compound, the K (24 h) was 4.1 meq/L, the LDH (24 h) was 66.4 IU/L and the Na (24 h) was 140.2 meq/L. The PL (24 h) was 128 mg/dL, the RALB (24 h) was 4 g/dL and the TBIL (24 h) was 0.042 mg/dL. The TC (24 h) was 74.2 mg/dL, the TG (24 h) was 46.4 mg/dL and the TP (24 h) was 5.5 g/dL. It also gave a gamma-GTP (24 h) of 0.6 IU/L.
